Test [1] concerns the target T1, human neurokinin-3 receptors expressed in CHO cell lines (Homo sapiens, UniProt P29371).
T1 sequence (P29371 1-465): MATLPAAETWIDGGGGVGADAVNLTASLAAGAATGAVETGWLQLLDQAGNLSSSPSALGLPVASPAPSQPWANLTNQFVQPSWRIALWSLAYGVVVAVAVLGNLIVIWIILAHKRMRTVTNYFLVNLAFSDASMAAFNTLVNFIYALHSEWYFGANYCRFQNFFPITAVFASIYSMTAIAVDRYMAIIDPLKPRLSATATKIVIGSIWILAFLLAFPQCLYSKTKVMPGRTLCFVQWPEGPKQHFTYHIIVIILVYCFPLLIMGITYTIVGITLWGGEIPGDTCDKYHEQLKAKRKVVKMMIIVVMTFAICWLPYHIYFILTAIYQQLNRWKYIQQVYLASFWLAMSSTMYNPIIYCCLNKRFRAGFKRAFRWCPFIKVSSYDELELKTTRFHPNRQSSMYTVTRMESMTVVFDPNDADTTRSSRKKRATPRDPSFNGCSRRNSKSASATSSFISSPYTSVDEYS
In words: biochemical. The following applies: human NK-3 receptors in CHO cell lines; radioligand [125I]-[Me-Phe7]-NKB; mean of 2-5 separate experiments in duplicate or triplicate; read-out: Binding affinity in hNK-3-CHO IC50.
Method: The activity of the compounds of the present invention, as NK3 ligands, is determined by their ability to inhibit the binding of the radiolabelled NK3 ligands, [^125 I]-[Me--Phe^7 ]-NKB or [^3 H]-Senktide, to guinea-pig and human NK3 receptors (Renzetti et at, 1991, Neuropeptide, 18, 104-114; Buell et al, 1992, FEBS, 299(1), 90-95; Chung et al, 1994, Biochem. Biophys. Res. Commun., 198(3), 967-972).
The binding assays utilized allow the determination of the concentration of the individual compound required to reduce by 50% the [^125 I]-[Me--Phe^7 ]-NKB and [^3 H]-Senktide specific binding to NK3 receptor in equilibrium conditions (IC50).
The NK3 -antagonist activity of the compounds of the present invention is determined by their ability to inhibit senktide-induced contraction of the guinea-pig ileum (Maggi et al, 1990, Br. J. Pharmacol., 101, 996-1000) and rabbit isolated iris sphincter muscle (Hall et al., 1991, Eur. J. Pharmacol., 199, 9-14) and human NK3 receptors-mediated Ca^++ mobilization (Mochizuki et al, 1994, J. Biol. Chem., 269, 9651-9658). Guinea-pig and rabbit in-vitro functional assays provide for each compound tested a mean KB value of 3-8 separate experiments, where KB is the concentration of the individual compound required to produce a 2-fold rightward shift in the concentration-response curve of senktide. Human receptor functional assay allows the determination of the concentration of the individual compound required to reduce by 50% (IC50 values) the Ca^++ mobilization induced by the agonist NKB.

Test [2] addresses T2, NK-3 receptor relative to the NK-2 receptor (Homo sapiens, UniProt P29371).
T2 construct: counter-target NK-2 receptor (TACR2, human P21452); assay not given
T2 sequence (P29371 1-465): T1 sequence (P29371 1-465)
In words: Selectivity for the NK-3 receptor relative to the NK-2 receptor. The class given is binding. Conditions: in words.

The test system of the next test is NK-2 and NK-3 receptors. Nature of the test: Combined NK-2/NK-3 antagonism. The following applies: in words.

pIC50: −log10 of the molar value. Where a name gives a salt, the structure may show the parent alone.

By pIC50 is commonly meant −log10 of the IC50, conventionally taken in molar units. As for `CC[C@H](NC(=O)c1c(OCCNC2Cc3ccccc3C2)c(-c2ccccc2)nc2ccccc12)c1ccccc1` [Example 8, (S)-N-(α-ethylbenzyl)-3-[2-(2-indanylamino)ethoxy]-2-phenylquinoline-4-carboxamide hydrochloride], the pIC50 in test [1] is 8.89. On the same count and under the same terms, with `CC[C@H](NC(=O)c1c(OCCNC(=O)c2ccccc2)c(-c2ccccc2)nc2ccccc12)c1ccccc1` [Example 9, (S)-N-(α-ethylbenzyl)-3-(2-benzoylaminoethoxy)-2-phenylquinoline-4-carboxamide] the figure was 8.66. Same read-out and setting: for `CC[C@H](NC(=O)c1c(OCCCC(=O)O)c(-c2ccccc2)nc2ccccc12)c1ccccc1` [Example 11, (S)-N-(a-ethylbenzyl)-3-(carboxypropoxy)-2-phenylquinoline-4-carboxamide] the value was 8.77; for `CC[C@H](NC(=O)c1c(OCCNC(=O)CCC(=O)O)c(-c2ccccc2)nc2ccccc12)c1ccccc1` [Example 14, (S)-N-(a-ethylbenzyl)-3-[2-(3-carboxypropanoyl)aminoethoxy]-2-phenylquinoline-4-carboxamide], 8.64. Take `CC[C@H](NC(=O)c1c(OCCNC(=O)Cc2ccccc2)c(-c2ccccc2)nc2ccccc12)c1ccccc1` [Example 22]: the pIC50 in test [1] was 9.22. Still for that read-out and setting: for `CC[C@H](NC(=O)c1c(OCCNC(=O)CN)c(-c2ccccc2)nc2ccccc12)c1ccccc1` [Example 25, (S)-N-(a-ethylbenzyl)-3-(2-aminoacetylaminoethoxy)-2-phenylquinoline-4-carboxamide] the value was 8.59; for `CC[C@H](NC(=O)c1c(OCCNC(=O)Cc2ccncc2)c(-c2ccccc2)nc2ccccc12)c1ccccc1` [Example 26, (S)-N-(a-ethylbenzyl)-3-[2-(4-pyridylacetyl)aminoethoxy]-2-phenylquinoline-4-carboxamide], 9.05. On the same count and under the same terms, for `CC[C@H](NC(=O)c1c(OCCNC(=O)Cc2ccccc2C(=O)O)c(-c2ccccc2)nc2ccccc12)c1ccccc1` [Example 29, (S)-N-(a-ethylbenzyl)-3-[2-(2'-carboxyphenylacetyl)aminoethoxy]-2-phenylquinoline-4-carboxamide] the value was 9.10. Still for that read-out and setting: for `CC[C@H](NC(=O)c1c(OCCNC(=O)c2ccccc2CC(=O)O)c(-c2ccccc2)nc2ccccc12)c1ccccc1` [Example 30, (S)-N-(a-ethylbenzyl)-3-[2-(2'-carboxymethylbenzoyl)aminoethoxy]-2-phenylquinoline-4-carboxamide] the value was 8.82. In the case of `CC[C@H](NC(=O)c1c(OCc2ccncc2)c(-c2ccccc2)nc2ccccc12)c1ccccc1` [Example 34], the pIC50 in test [1] was 8.80. The “selectivity for the NK-3 receptor relative to the NK-2 receptor” value in test [2] is listed as “particularly selective for the NK-3 receptor relative to the NK-2 receptor”. Taken in the same sequence, the figures for `CC[C@H](NC(=O)c1c(OCCNC(=O)c2cnccn2)c(-c2ccccc2)nc2ccccc12)c1ccccc1` [Example 36] were 9.70 and “particularly selective for the NK-3 receptor relative to the NK-2 receptor”. For `CC[C@H](NC(=O)c1c(OCCCNC(=O)c2cnccn2)c(-c2ccccc2)nc2ccccc12)c1ccccc1` [Example 38] the same measures were 9.40 and “particularly selective for the NK-3 receptor relative to the NK-2 receptor”. Consider `CC[C@H](NC(=O)c1c(OCCNC(=O)Cc2ccccc2CNC)c(-c2ccccc2)nc2ccccc12)c1ccccc1` [Example 39], for which the “combined NK-2/NK-3 antagonism” value in the test on NK-2 and NK-3 receptors is “particularly suitable as combined NK-2/NK-3 antagonists”.

Turning to `CC[C@H](NC(=O)c1c(OCCNC(=O)Cc2ccccc2CN2CCCC2)c(-c2ccccc2)nc2ccccc12)c1ccccc1` [Example 40], the pIC50 in test [1] was 8.89. For the same molecule, in the test with NK-2 and NK-3 receptors, the “combined NK-2/NK-3 antagonism” value was “particularly suitable as combined NK-2/NK-3 antagonists”.

`CC[C@H](NC(=O)c1c(OCCNC(=O)Cc2ccccc2O)c(-c2ccccc2)nc2ccccc12)c1ccccc1` [Example 42]: in test [1], the pIC50 is 9.40.

The values above are taken from patent US6277862A, “Quinoline derivatives” (SmithKline Beecham S.p.A., priority 1995, dated 2001).
